# Measurements: patent US9750426B2, “System and method for assessing response to chemotherapy using magnetic resonance elastography” (MAYO FOUNDATION FOR MEDICAL EDUCATION AND RESEARCH, priority 2010, dated 2017)
# What was measured:
# DoHH2 cells = test system: DoHH2 cells
# Protocol: The mice were divided into two groups, the first considered the “control” (N=7) and the second the chemotherapy or “chemo” (N=8) group. […] Following an initial scan to determine baseline stiffness, the control group received an injection of normal saline while the chemo group received 4 mg of cyclophosphamide (160 mg/kg). MRE was performed on each mouse using an experimental setup specifically designed to accommodate the mouse and providing the mouse with the requisite anesthesia, via a constant flow of isofluorane during the image acquisition. MRE was performed at different time points (baseline to 4 days post-injection). The experimental setup included a high-frequency electromechanical driver that was developed to produce localized vibrations in the tumor within the mouse at a frequency of 800 Hz. All experiments were performed on a 3.0 T whole-body MRI scanner using a specialized 6-cm diameter transmit-receive RF coil and an EPI based MRE sequence. The MRE imaging parameters included FOV=5 cm; TRITE=1100/99 msec; motion encoding gradient (MEG) frequency=800 Hz; MEG direction=SI, AP, RL; motion encoding sensitivity=3.98 μm/(π radians); BW=83.0 kHz. Volumetric measurements were obtained using both a caliper and measurements from a T2-weighted image data set in order to quantify treatment response. Elastograms (stiffness maps) were calculated using a Multiple Model Direct Inversion (MMDI) algorithm with a directional filter (Butterworth bandpass filter with cutoff frequencies 2-128 waves/FOV).
# From the text for DoHH2 tumor cells: The process 230 starts at process block 232 with either the positioning of the subject in the bore of an MRI system and the coupling of an MRE drive or the positioning of an ex viva sample within an MRE system. […] Thus, the step of positioning the subject for imaging at process block 232 may be initiated within hours to days after the completion of chemotherapy, instead of weeks later, as required in traditional assessment techniques. Once the subject is positioned for MRE imaging, using a high-frequency pulse sequence, such as the example sequence described with respect to FIG. 3, raw MRE data is collected from the subject or sample at process block 234.
# After the raw MRE data is collected at process block 234, the data is pre-processed at process block 236. Pre-processing may include minimum discontinuity phase unwrapping, 2-dimensional filtering along, for example, eight evenly spaced directions in the imaging plane and 2-dimensional order-4 Butterworth bandpass filtering with cutoff wave numbers of 1 and 80 waves/FOV. Then, at process block 238, a 2-D phase gradient inversion is used to process the preprocessed data and produce elastograms. The phase gradient inversion may be done, for example, with a 5×5 window. Using the elastograms, at process block 240, regions of interest (ROIs) can be drawn on the tumor where wave penetration and phase signal to noise ratio were visually acceptable. Using the selected ROIs, the mean stiffness values in these regions of interest can then be measured for each slice, at process block 242, and the average of these values can then be reported as a stiffness value of tumors, at process block 244. Using this information, a determination of the response of the tumor to the chemotherapy can be determined.
# The tumor cells were maintained in RPMI 1640 medium supplemented with 10% heat-inactivated FCS (Sigma Chemical Co.), 50 U/ml penicillin G, 50 μg/ml gentamicin and 100 μg/ml streptomycin (all from Ufe Technologies, Grand Island, N.Y., USA) with the addition of 10 mM HEPES, 4.5 g/l glucose and 1 mM sodium pyruvate. […]
smiles,measurement,setting,value
O=P1(N(CCCl)CCCl)NCCCO1 (stereo not drawn) [cyclophosphamide],change in stiffness from baseline at day 4,"DoHH2 cells; Tukey HSD test, p=0.02",significant change in stiffness
same,change in stiffness from baseline at day 3,"DoHH2 cells; Tukey HSD test, p=0.04",significant change in stiffness
same,change in tumor volume,"DoHH2 cells; caliper and T2-weighted image measurements, baseline to day 4, p=0.59, no statistically significant change",remained the same or decreased slightly
same,average shear stiffness at day 4,"DoHH2 cells; in vivo MRE 800 Hz, 4 mg (160 mg/kg), day 4, N=8, baseline 9.885±1.74 kPa",8.237±1.93 kPa
same,average decrease in shear stiffness from baseline to day 4,"DoHH2 cells; in vivo MRE, 4 mg (160 mg/kg), N=8",1.649 kPa
same,change in stiffness in vivo before three days after injection,DoHH2 cells; time points before three days after injection,No changes in stiffness were observed
same,"tumor stiffness, Mean","DoHH2 tumor cells; CB17/SCID mice, subcutaneous DoHH2 tumors, 160 mg/kg (4 mg) intraperitoneally, tumors excised four hours later, MRE ex vivo, N=5",21.82 kPa
same,stiffness change 4 hours after drug administration (ex vivo),"DoHH2 tumor cells; ex vivo mouse tumor studies, 4 hours after drug administration",stiffness increased
same,change in tumor stiffness measured by MRE versus saline,"DoHH2 tumor cells; one-sided T-test between chemo and saline groups, p value 0.034, 4 hours after dosing",significant change in the tumor stiffness
